According to patent publication US20200289520A1, “COMPOSITION AND METHOD FOR TREATING PERIPHERAL T-CELL LYMPHOMA AND CUTANEOUS T-CELL LYMPHOMA” (Rhizen Pharmaceuticals SA, priority 2017, published 2020):
Entries after “also recorded” stand apart in the source; their conditions may differ.

Assays:
pAKT = pAKT in patient-derived primary malignant T cells (Phosphoflow); format: cell-based, human; conditions: CTCL donors n=6, 1.5 h incubation then cytokine activation 30 min; FIG. 4
Experimental: (§1) The effect of Compound (A) on pAKT in patient-derived primary cells was also studied. Malignant T cells from Cutaneous T-cell Lymphoma (CTCL) patient donors (n=6) were purified using fluorescence-activated cell sorting (FACS) and cultured overnight in RPMI/1% BSA. Cells were incubated with desired concentrations of Compound (A) for 1.5 h followed by activation with a cytokine mixture (20 ng/ml IL2+5 ng/ml IL7+10 ng/ml IL15+10% FBS) for 30 min. pAKT was estimated using Phosphoflow and normalized to total AKT. Data were analyzed using Prism 5.0 software analysis. For apoptosis assays, FACS purified cells from CTCL donors (n=4) were cultured in RPMI/10% FBS+20 ng/ml IL2+5 ng/ml IL7+10 ng/ml IL15 with and without Compound (A), LY294002, or camptothecin for 48 h. Apoptosis was assayed by Annexin V/PI staining.

[1] = tested on: Malignant T cells from Cutaneous T-cell Lymphoma (CTCL) patient donors; experiment: Apoptosis by Annexin V/PI staining in purified malignant T-cells from CTCL donors; format: cell-based, human; conditions: CTCL donors n=4, 48 h, FIG. 5
Experimental: as §1

[2] = tested on: MOLT-4 (human T lymphoblast cell line) xenograft; experiment: MOLT-4 subcutaneous mouse xenograft model; format: in vivo
Experimental: The anti-tumor effect of Compound (A) was determined in a MOLT-4 (representing human T lymphoblast cell line) subcutaneous mouse xenograft model. Briefly, 10^6 cells were injected into the flank region. Mice were randomized according to body weight into […] groups of five. A week after tumor cell injection, mice either received the vehicle, oral administration of Compound (A) at 50 mg/kg/BID Compound (A), or administration of cytarabine (Ara-C), over an 18-day study period. At the end of the study period, animals were sacrificed and the tumors harvested.

[3] = tested on: relapsed or refractory T-cell lymphoma; experiment: Phase I/Ib study in patients with relapsed or refractory T-cell lymphoma (PTCL and CTCL); format: in vivo, human; conditions: for ORR (objective response rate) / ORR (objective response rate), patients: oral BID
Experimental: This is a Phase I/Ib, 3+3 design study in patients with relapsed or refractory T-cell lymphoma
Compound (A) (tenalisib) was given orally twice a day in 28-day cycles and dose-limiting toxicities (DLTs) were assessed during the first cycle.
Intra-patient dose escalation was allowed following safety of higher doses. • Primary Objectives: The Safety, Pharmacokinetics (PK), Maximum Tolerated Dose (MTD) • Secondary Objectives: Pharmacodynamics, Overall response rate (ORR), Duration of response (DOR)
Histologically confirmed T-cell Non-Hodgkin's lymphoma.
Relapsed after, or refractory to ≥1 prior treatments, and not eligible for transplantation and or approved therapy; ECOG performance status ≤2; patient with measurable or evaluable disease; Adequate organ system function: ANC ≥750/μL; platelets ≥50 K/μL.
Prior therapy that inhibits PI3K/BTK/mTOR were part of exclusion criteria.

phospho-AKT (Ser473) = experiment: Reduction of pAKT in T-cell lymphoma cell lines (Western blotting); format: cell-based; conditions: Western blot normalized to actin, FIG. 2
Experimental: AKT, a serine threonine kinase mediates the downstream effects of PI3K activity and modulates several cell processes including survival and growth. Reduction of pAKT by Compound (A) in representative cell lines was determined by Western blotting using a phospho-AKT (Ser^473) antibody. Band intensity was measured and quantified using ImageJ software and normalized to actin.

[4] = tested on: T-cell lymphoma cell lines (Jurkat, MOLT-4, CCRF-CEM, HuT-78, HuT-102, Sez4 and HH); experiment: Anti-proliferative effect in T-cell lymphoma cell lines (MTT assay); format: cell-based; conditions: 48-72 h incubation, FIG. 1
Experimental: Compound (A) was tested across a panel of T-cell lymphoma cell lines (Jurkat, MOLT-4, CCRF-CEM, HuT-78, HuT-102, Sez4 and HH). Cells were plated in 96-well plates and incubated with desired concentrations of Compound A for 48-72 h. At the end of the incubation period, MTT ((3-(4,5-dimethylthiazol-2-yl)-2,5-diphenyltetrazolium bromide)) was added. The plate was placed on a shaker for 5 min to mix the formazan and the optical density at 560 nm was measured on a spectrophotometer. Data were plotted using Graphpad prism for calculation of the IC50 concentrations.

caspase-3 = experiment: Induction of caspase 3 in T-lymphoma cell lines; format: cell-based; conditions: 48 h incubation, fluorimetric; FIG. 3
Experimental: Cells (Jurkat, MOLT-4, CCRF-CEM, HuT-78 and HuT-102) were incubated with desired concentrations of Compound (A) for 48 h. An equal number of cells per well (0.3×10^6 cells) were used. Increase in apoptosis manifested by an elevation in caspase-3 levels was determined using a Caspase-3 kit from Millipore. Induction of Caspase 3 by Compound A was measured fluorimetrically.

CC[C@H](Nc1ncnc2[nH]cnc12)c1oc2ccccc2c(=O)c1-c1cccc(F)c1 [Compound (A), (S)-2-(1-((9H-purin-6-yl)amino)propyl)-3-(3-fluorophenyl)-4H-chromen-4-one]
inhibition of pAKT in purified malignant T-cells (pAKT): dose-dependent inhibition of pAKT
apoptosis in purified malignant T-cells [1]: dose-dependent increases in apoptosis
tumor growth ([2]; 50 mg/kg BID oral, 18-day study period, vs vehicle, FIG. 6): significantly delayed tumor growth; also recorded: significant delay in tumor growth
tolerability (body weight, adverse effects) ([2]; mice, daily dose of 50 mg/kg): without body weight loss or noticeable adverse effects
CR (complete response) ([3]; All, 58 treated/35 evaluable): (9) %
CR (complete response), patients ([3]; All, 58 treated/35 evaluable): 3 n
DCR (CR + PR + SD) ([3]; All, 58 treated/35 evaluable): 74%
DCR (CR + PR + SD), patients ([3]; All, 58 treated/35 evaluable): 26 n
PD (progressive disease) ([3]; All, 58 treated/35 evaluable): 23%
PD (progressive disease), patients ([3]; All, 58 treated/35 evaluable): 8 n
PR (partial response) ([3]; All, 58 treated/35 evaluable): (37) %
PR (partial response), patients ([3]; All, 58 treated/35 evaluable): 13 n
ORR (objective response rate) ([3]; All, 58 treated/35 evaluable): (46) %
ORR (objective response rate), patients ([3]; All, 58 treated/35 evaluable): 16 n
DCR (CR + PR + SD) ([3]; CTCL, 30 treated/20 evaluable): 80%
DCR (CR + PR + SD), patients ([3]; CTCL, 30 treated/20 evaluable): 16 n
PD (progressive disease) ([3]; CTCL, 30 treated/20 evaluable): 20%
PD (progressive disease), patients ([3]; CTCL, 30 treated/20 evaluable): 4 n
PR (partial response) ([3]; CTCL, 30 treated/20 evaluable): (45) %
PR (partial response), patients ([3]; CTCL, 30 treated/20 evaluable): 9 n
ORR (objective response rate) ([3]; CTCL, 30 treated/20 evaluable): (45) %
ORR (objective response rate), patients ([3]; CTCL, 30 treated/20 evaluable): 9 n
CR (complete response) ([3]; PTCL, 28 treated/15 evaluable): (20) %
CR (complete response), patients ([3]; PTCL, 28 treated/15 evaluable): 3 n
DCR (CR + PR + SD) ([3]; PTCL, 28 treated/15 evaluable): 74%
DCR (CR + PR + SD), patients ([3]; PTCL, 28 treated/15 evaluable): 10 n
PD (progressive disease) ([3]; PTCL, 28 treated/15 evaluable): 27%
PD (progressive disease), patients ([3]; PTCL, 28 treated/15 evaluable): 4 n
PR (partial response) ([3]; PTCL, 28 treated/15 evaluable): (27) %
PR (partial response), patients ([3]; PTCL, 28 treated/15 evaluable): 4 n
ORR (objective response rate) ([3]; PTCL, 28 treated/15 evaluable): (47) %
ORR (objective response rate), patients ([3]; PTCL, 28 treated/15 evaluable): 7 n
endogenous pAKT expression (phospho-AKT (Ser473)): dose-dependent reduction
proliferation / growth of T-lymphoma cell lines [4]: dose-dependent reduction in proliferation
caspase-3 induction (caspase-3): dose-dependent increase in caspase-3
